Results reported in patent US10792301B2, “Therapeutic polysaccharide midi-GAGR and related materials and methods” (priority 2015, dated 2020).

Columns and labels:
Assay type in all cases: cell-based
[1] = test system: phosphorylated CREB in mouse embryonic cortical neurons; assay: Nuclear p-CREB immunostaining in cortical neurons (Example 2); settings: 1 μM, 24 h
Experimental: Differentiated PC12 cells and mouse embryonic cortical neurons (E17, DIV14) were treated with mock, dextran, alginate, HA-GAGR or midi-GAGR (1 μM) for 24 h and fixed in 3.7% paraformaldehyde. The fixed cells and neurons were immunostained with antibodies against α-tubulin and phosopho-CREB (p-CREB) along with DAPI (nucleus).

[2] = test system: Rat embryonic cortical neurons; assay: Neuritic atrophy caused by 4-HNE, Scholl ring analysis; settings: pre-treatment 2 days (1 μM; ascorbate 100 μM), then 25 μM 4-HNE 1 day
Experimental: Rat embryonic cortical neurons were treated with mock (FIG. 11C), 1 μM HA-GAGR (high acyl gellan gum), 1 μM dextran, 100 μM ascorbate or 1 μM midi-GAGR (FIG. 13A) for 2 days and then with 25 μM 4-hydroxynonenal (4-HNE), a lipid peroxide, for 1 day. After fixation, neurons were immunostained with anti-synaptophysin antibody (green) and rhodamine-phalloidin (actin: red). Scholl ring analysis was performed.

[3] = test system: Differentiated dopaminergic PC12 cells; assay: LIVE/DEAD viability of differentiated PC12 cells exposed to 6-OHDA; settings: 1 μM for 6 h, then 30 μM 6-OHDA for 24 h
Experimental: Differentiated dopaminergic PC12 cells and primary mouse embryonic cortical neurons (E17, DIV14) were treated with mock (H2O) or 1 μM of dextran, alginate, HA-GAGR or midi-GAGR for 6 h and insulated by oxidative stressors (30 μM 6-OHDA [PC12] and 10 μM amyloid β peptide [cortical neurons]) for 24 h.

[4] = test system: primary mouse cortical neurons (E17, DIV4); assay: Neurite outgrowth in primary mouse cortical neurons; settings: 2 days; 1 μM midi-GAGR, dextran, alginate; 0.1 μM LA-GAGR; 0.01 μM HA-GAGR
Experimental: To analyze the effect of polysaccharides on neurite outgrowth, primary mouse cortical neurons were treated with vehicle (H2O) or 1 μM of dextran, alginate, or midi-GAGR, 0.01 μM of HA-GAGR, or 0.1 μM of LA-GAGR for 2 days prior to immunocytochemistry using anti-α-tubulin antibody and secondary Alexa488nm antibody. An etched grid coverslip containing 200 numbered boxes was used to select neurons objectively for image acquisition and analysis. A total of 24 boxes were randomly selected per treatment group. All the neurons having total neurite length longer than 4 times of the diameter of neuron cell body were chosen for image analysis. The total length of the neurites of each neuron was measured using Metamorph and used to calculate average total neurite length. To examine the effect of polysaccharides on the phosphorylation (activation) of nuclear CREB, neurons were stained with anti-pCREB antibody (Abcam & Santa Cruz biotechnologies, 2nd antibody with Alexa568nm), anti-α-tubulin antibody (Sigma, 2nd antibody with Alexa488nm), and DAPI (Sigma) after two-day incubation with vehicle (H2O) or 1 μM of dextran, alginate, or midi-GAGR, 0.01 μM of HA-GAGR, or 0.1 μM of LA-GAGR. […] The images of neurons on coverslips were taken by confocal microscopy at the same gain (850), offset (˜0.01) and exposure time (2 sec). The intensity of the staining of nuclear pCREB was measured using Metamorph and used to calculate average intensity. In addition, the phosphorylation of CREB in the cytosols of mouse cortical neurons treated with polysaccharides were detected by immunoblotting. Primary mouse neurons were dissected from 16 mouse embryos (E17) and plated in the wells of 6-well plates (1×10^6 cells/well), differentiated for 6 days, and treated with polysaccharides for 48 h. […] The protein bands on blots recognized by anti-pCREB (Santa Cruz Biotechnologies) and anti-CREB antibodies were detected on Amersham Hyperfilm™ ECL films (GE Healthcare Life Science) using SuperSignal® West Pico Chemiluminescent Substrate (Thermo Scientific).

dextran
increase of the levels of nuclear p-CREB [1]: not significantly increased | neurites in the presence of 4-HNE (neuritic atrophy) [2]: lost neuritis | 6-OHDA-induced cell death [3]: did not | fold change in average total neurite length compared to vehicle [4]: did not enhance neuritogenesis
